From patent US6815170B1, “Methods for lymph node identification” (John Wayne Cancer Institute, priority 1999, dated 2004)
“Also recorded” adds a separate entry of the source.

Columns and labels:
[1] = system: malignant melanoma; conditions: liver and lung; cited from earlier work
[2] = system: sentinel lymph node; experiment: Intraoperative lymphatic mapping / sentinel lymph node dissection with histologic evaluation for carbon particles; assay type: in vivo, Sprague-Dawley rats; conditions: for basins in which afferent lymphatic channel and stained (sentinel) node were identified: 0.04 cc intradermal, lower extremity, incision 5 min after injection
Text: Twenty-two adult Sprague-Dawley rats weighing 300-500 g were obtained after receiving approval from the Animal Care and Use Committee at the Harbor-UCLA Research and Education Institute. All animals were obtained at least one day prior to planned procedures.
Isosulfan blue dye (Lymphazurin 1%) was obtained from Hirsch Industries, Inc. (Richmond, Va.). Carbon dye containing 6% carbon black (# 4415) was obtained from Sanford Corporation (Bellwood, Ill.) and either used alone at full strength or mixed with isosulfan blue and/or sterile normal saline in the concentrations shown in Table 1.
All mapping solutions containing ink were sterilized in an autoclave at 121° C. for 25 m, prior to injection.
All procedures were performed under general anesthesia. Rats were anesthetized with a mixture of ketamine (42.9 mg/kg), xylazine (8.6 mg/kg), and acepromazine (1.4 mg/kg). A half-dose of this mixture was readministered at 60 minutes and then every 30 minutes. Buprenorphine (0.01-0.05 mg/kg) was administered subcutaneously for postoperative analgesia.
The inguinal regions of the animals were shaved. A 29-gauge needle with a 1-cc tuberculin syringe was used to inject 0.04 cc of the mapping solution intradermally just below the medial aspect of the knee on the lower extremity. Five minutes later, and under sterile conditions, an incision was made over the region of the inguinal lymph nodes. […] The lymphatic was followed to the first stained lymph node. Further dissection was carried out to identify additional stained nodes. All stained nodes were removed and placed in formalin. Nonstained nodes in the same drainage basin were removed and fixed in a similar fashion, and analyzed for carbon particles. The identical procedure was performed on the contralateral extremity of each animal using an alternative mapping mixture.
Lymph nodes were placed in paraffin blocks, serially sectioned, and stained with hematoxylin and eosin (H and E). Each lymph node was evaluated by light microscopy for the presence of carbon particles.

SMILES	uptake by non-tumor tissue [1]	basins in which afferent lymphatic channel and stained (sentinel) node were identified ([2]; listed as Isosulfan blue)	basins in which afferent lymphatic channel and stained (sentinel) node were identified ([2]; listed as Isosulfan blue dye)	total number of sentinel nodes ([2]; 6 basins)
CCN(CC)CCNC(=O)c1ccc(I)cc1 [IDAB, N-(diethylaminoethyl)4-iodobenzamide]	taken up in high concentrations by non-melanoma cells in the liver and lung			
CCN(CC)c1ccc(C(=C2C=CC(=[N+](CC)CC)C=C2)c2cc(S(=O)(=O)[O-])ccc2S(=O)(=O)[O-])cc1.[Na+] [isosulfan blue dye, isosulfan blue]		effectively identified the lymphatic channel and sentinel node(s); also recorded: clearly identified one sentinel node in each paired basin	all 6	8
